Experiment [1] concerns paclitaxel-induced peripheral nerve disorder rats. Nature of the experiment: von Frey test in paclitaxel-induced peripheral nerve disorder rats. The following applies: Rattus norvegicus, ip; single intraperitoneal dose of 300 μ/kg; higher of the thresholds after 1 hour and 5 hours; normal threshold 15; read-out: Recovery rate of 50% reaction threshold value (%). The format is in vivo. On the procedure: The effect of the compound of the present invention was tested for a peripheral nerve disorder which is a side effect induced by the administration of paclitaxel (an anti-cancer agent) such as hyperesthesia including allodynia (severe pain induced by such tactile stimuli which usually cause no pain). The compound of the present invention was intraperitoneally administered to rats as a test drug to conduct a von Frey test.
Male SD rats of six weeks age (one group comprising six rats) were used as experimental animals and paclitaxel (2 mg/kg) was intraperitoneally administered every other day for four times in total to prepare paclitaxel-induced peripheral nerve disorder rats. During 18 and 25 days or during 20 to 27 days after initiation of paclitaxel administration, the test drug was intraperitoneally administered in a single dose of […] and the following von Frey test was conducted.
The rats of the above (1) were placed in a transparent acrylic cage with a wire-meshed floor and habituated for about three minutes and the 50% reaction threshold values to the mechanical stimulus of right hind limb were measured before administration of the test drug and after 1, 5 and 24 hours from initiation of the administration.
The measurement was conducted using von Frey filaments (manufactured by North Coast Medical Inc.) in accordance with the methods of Chaplan, et al. (Journal of Neuroscience Methods, vol. 53, no. 1, pages 55 to 63, 1994) and Dixon, et al. (Annual Review of Pharmacology and Toxicology, vol. 20, pages 441 to 462, 1980). […] The case where the rat escaped at the instance of removing the filament was also called positive. When the positive reaction was noted, stimulus was conducted similarly using a filament of one rank weaker while, when no reaction was noted, stimulus was conducted similarly using a filament of one rank stronger and the point when the reaction changed from negative to positive or from positive to negative was called the first two reactions. After that, stimulus was conducted for continuous four times by the same up-down method. A 50% reaction threshold value to the mechanical stimulus was measured using the reaction to the six stimuli in total and then (mean value)±(standard error) for each group was calculated. Incidentally, when stimulus reached by that of 15.0 g without positive reaction or, when positive reaction continued to 0.4 g, then 15.0 g or 0.25 g was adopted as each threshold value, respectively. With regard to the higher 50% reaction threshold value between the 50% threshold values after 1 hour and 5 hours from administration of a test drug, a recovery rate (%) of the 50% reaction threshold value was calculated by the following expression in which 15 was adopted as the normal threshold value. Recovery rate (%) of 50% reaction threshold value=[(50% reaction threshold value after 1 hour or 5 hours from administration of test drug)−(50% reaction threshold value before administration of test drug)]/[(Normal threshold value)−(50% reaction threshold value before administration of test drug)]

Experiment [2] has as its system PC12 cells. The experiment in a line: Evaluation using PC12 cells; immunostaining method for MAPK phosphorylation. It is filed as cell-based. The conditions noted are these: 30 minutes. On the procedure: PC12 cells were stimulated using the compound of the present invention and the phosphorylation of MAPK was evaluated by means of immunostaining of the cells. The specific operation procedure is as follows.
A cover glass was placed on a 24-well plate followed by coating with poly-L-lysine. PC12 cells were seeded in a cell density of 50,000 cells/well. (The amount of the medium was 400 μL) On the first day after seeding the cells, the medium was exchanged to DMEM containing 1% fetal bovine serum (FBS) and 0.06% L-glutamine.
The compound which was previously diluted with DMSO was dissolved in 100 μl of medium. After 12 to 16 hours from the medium exchange, 100 μl out of 400 μl of the medium was removed from each well and, in place of that, 100 μl of a medium containing the compound was added.
After 30 minutes from the addition, fixation was conducted using 4% paraformaldehyde (PFA) for 10 minutes. The fixed cells were washed with a Tris-buffered saline (TBS) and a TBS containing 0.3% Triton X was added thereto followed by incubating at 37° C. for 30 minutes. This was washed with a TBS and blocked with a TBS containing 3% skim milk for 30 minutes (at room temperature).
This was washed with a TBS for one time and a primary antibody (anti-phospho-p42/44 MAPK antibody; cell signalings; #9102 being diluted with TBS to an extent of 1,000-fold) was added thereto followed by subjecting to the reaction at 4° C. for one night. The primary antibody was removed and washed with a TBS for three times. After that, the secondary antibody (Alexa 488 goat anti-rabbit antibody; Invitrogen: being diluted to an extent of 1,000-fold using a TBS containing 1% Block Ace) was added thereto and the reaction was conducted at room temperature for 3 hours. The secondary antibody was removed and, after washing with a TBS, fixation was conducted with 4% PFA for 1 hour.
This was washed with a TBS, Hoechst (diluted with a TBS to an extent of 2000-fold) was added thereto and nuclear staining was conducted. This was washed and mounted.
Taking the photographic pictures and counting the positive cells were conducted as follows. An all-in-one microscope (manufactured by Keyence) was used, exposing time for pMAPK (green) was made 1/2.8 s, the place was appropriately decided in a Hoechst-stained image and the pictures were taken. Four pictures per one glass sheet were taken.
Photoshop (Adobe) was used and the cells having above a certain luminance were judged to be positive. All cells were labeled using Hoechst 33342 manufactured by Invitrogen and the rate of pMAPK-positive cells in Hoechst-positive cells was calculated. (cf. Table 7)

For `CCCCCCC/C=C/C(=O)NC(CC)CCCCC` (stereo not shown) [Compound 25, (E)-N-(octan-3-yl) dec-2-enamide], in experiment [1], the inhibition in vivo at 0.3 mg/kg stood at 33.7%.
Same read-out and setting: under `CCCCCCC/C=C/C(=O)NC(C)(C)CC(C)(C)C` [Compound 26, (E)-N-(2,4,4-trimethylpentan-2-yl) dec-2-enamide] stands 55.7%; under `CCCCCCC/C=C/C(=O)NC` [Compound 15, (E)-N-methyl dec-2-enamide], 37.7%; under `CCCCCCC/C=C/C(=O)NCCc1ccccc1` [Compound 29, (E)-N-phenethyl dec-2-enamide], 46.3%.
Same read-out and setting: then `CCCCCCC/C=C/C(=O)SCCC(C)C` [Compound 49, (E)-S-isopentyl dec-2-enethioate], with 69.3%.
As to `CCCCCCC/C=C/C(=O)OC(COCC)COCC` [Compound 11, (E)-1,3-diethoxy-2-propyl dec-2-enoate], the inhibition in vivo at 0.3 mg/kg in experiment [1] is 37.6%.
On to `CCCCCCC/C=C/C(=O)OC(C)CN(C)C` (stereo not shown) [Compound 3, (E)-1-(dimethylamino)propan-2-yl dec-2-enoate], for which the “Rate of pMAPK-positive cells (%)” value in experiment [2] (62.5 μg/mL) worked out at 0%; in experiment [2] (125 μg/mL), 12%; in experiment [2] (250 μg/mL), 14%; in experiment [2] (500 μg/mL), 14%.
For the compound `CCCCCCC/C=C/C(=O)NCCCN(CC)CC` [Compound 39, (E)-N-3-(diethylamino)propyl dec-2-enamide], the inhibition in vivo at 0.3 mg/kg in experiment [1] amounted to 49.7%.
On the same count and under the same terms, under `CCCCCCC/C=C/C(=O)NCC` [Compound 16, (E)-N-ethyl dec-2-enamide] stands 59.7%; under `CCCCCCC/C=C/C(=O)N(CCCCCC)CCCCCC` [Compound 34, (E)-N,N-dihexyl dec-2-enamide], 48.3%; under `CCCCCCC/C=C/C(=O)NCCC(C)C` [Compound 20, (E)-N-isopentyl dec-2-enamide], 42.5%.
Same read-out and setting: under `CCCCCCC/C=C/C(=O)NC(CCC)CCC` [Compound 24, (E)-N-(heptan-4-yl) dec-2-enamide] stands 56.1%; under `CCCCCCC/C=C/C(=O)Nc1ccccc1` [Compound 28, (E)-N-phenyl dec-2-enamide], 19.4%.
On the same count and under the same terms, then `CCCCCCC/C=C/C(=O)NCC(C)C` [Compound 18, (E)-N-isobutyl dec-2-enamide], with 54.6%; and `CCCCCCC/C=C/C(=O)OCCOCC` [Compound 10, (E)-2-ethoxyethyl dec-2-enoate], with 26.4%; and `CCCCCCC/C=C/C(=O)SCCc1ccccc1` [Compound 54, (E)-S-phenethyl dec-2-enethioate], with 51.9%.
On to `CCCCCCC/C=C/C(=O)NCCN(CCCC)CCCC` [Compound 41, (E)-N-2-(dibutylamino)ethyl dec-2-enamide], for which the inhibition in vivo at 0.3 mg/kg in experiment [1] worked out at 28.3%.
On the same count and under the same terms, then `CCCCCCC/C=C/C(=O)NCCCC` [Compound 17, (E)-N-butyl dec-2-enamide], with 52.6%.
The same measure, in the same setting: then `CCCCCCC/C=C/C(=O)NCCCCC` [Compound 19, (E)-N-pentyl dec-2-enamide], with 73.7%; and `CCCCCCC/C=C/C(=O)NC1CCCCC1` [Compound 27, (E)-N-cyclohexyl dec-2-enamide], with 46.4%.
For `CCCCCCC/C=C/C(=O)OCCOCCN(C)C` [Compound 12, (E)-2-(2-(dimethylamino)ethoxy)ethyl dec-2-enoate], the “Rate of pMAPK-positive cells (%)” value worked out at 11% in experiment [2] (62.5 μg/mL), 17% in experiment [2] (125 μg/mL), 9% in experiment [2] (250 μg/mL) and 29% in experiment [2] (500 μg/mL).
As to `CCCCCCC/C=C/C(=O)OCC(C)(C)CN(C)C` [Compound 5, (E)-3-(dimethylamino)-2,2-dimethylpropyl dec-2-enoate], the “Rate of pMAPK-positive cells (%)” value in experiment [2] (62.5 μg/mL) stood at 1%; in experiment [2] (125 μg/mL), 23%; in experiment [2] (250 μg/mL) it was 0%; in experiment [2] (500 μg/mL), 24%.

The values are drawn from patent publication US8987486B2, “Trans-2-decenoic acid derivative and pharmaceutical agent containing the same” (Nagoya Industrial Science Research Institute, priority 2010, dated 2015).
